In US8314130B2, “Compounds inclunding substituted pyridines for inflammation and immune-related uses” (Synta Pharmaceuticals Corp., priority 2008, dated 2012):
Read-outs that look alike come from different tables or passages of the source.

Assays:
[1] = tested on: IL-2; assay: Inhibition of IL-2 production in PHA-activated Jurkat cells (1% FBS), ELISA; assay type: cell-based; conditions: Homo sapiens, read-out: IL-2 current inhibition Jurkat/PHA/1% FBS IC50
Experimental: Jurkat cells were placed in a 96 well plate (0.5 million cells per well in 1% FBS medium), and then a test compound of this invention was added at different concentrations. After 10 minutes, the cells were activated with PHA (final concentration 2.5 μg/mL) and incubated for 20 hours at 37° C. under 5% CO2. The final volume was 200 Following incubation, the cells were centrifuged, and the supernatants collected and stored at −70° C. prior to assaying for IL-2 production. A commercial ELISA kit (IL-2 Eli-pair, Diaclone Research, Besancon, France) was used to detect production of IL-2, from which dose response curves were obtained. The IC50 value was calculated as the concentration at which 50% of maximum IL-2 production after stimulation was inhibited versus a non-stimulation control.

[2] = target: T1, CRACM1/STIM1 (Homo sapiens, UniProt Q96D31); assay: ICRAC current inhibition in CRACM1/STIM1-CHOK1 cells (patch clamp); assay type: cell-based; conditions: activity class; for inhibition at 0.5 µM: 500 nM
T1 construct: Full length human Stim1, CracM1, CracM2 and CracM3 cDNA
Experimental: Manual patch clamp experiments are conducted in the tight-seal whole-cell configuration at room temperature (21-25° C.). Patch pipettes are fashioned from borosilicate glass capillary tubes and have resistances between 2-4 MO after filling with standard intracellular solution. High resolution current recordings are acquired with a computer-based patch clamp amplifier system (EPC-10, HEKA, Lambrecht, Germany). All voltages are corrected for a liquid junction potential of 10 mV between external and internal solutions with glutamate as the intracellular anion. Currents are filtered at 2.9 kHz and digitized at 10 μs intervals. Capacitive currents and series resistance are determined and corrected before each voltage ramp using the automatic capacitance compensation of the EPC-10.
Automated patch clamp experiments are conducted with the QPatch 16 (Sophion Bioscience, Ballerup, Denmark) at room temperature (21-25° C.). Immediately following the establishment of giga-seal whole-cell configuration, the cells membrane potential is clamped at 0 mV. Voltage ramps of 50 ms duration spanning the voltage range of −100 to +100 mV are then stimulated at a rate of 0.33 Hz. Currents are filtered at 2.9 kHz and digitized at 200 μs intervals. Capacitive currents and series resistance are determined and corrected before each voltage ramp using the automatic capacitance compensation.
In general, a whole cell patch clamp method is used to examine the effects of a compound of the invention on a channel(s) that mediates ICRAC. In such experiments, a baseline ICRAC measurement is established within the first 70 voltage ramps, or 140 seconds, for a patched cell. Then the cells are perfused with the compound to be tested and the effect of the compound on ICRAC is measured for at least an additional 440 to 500 seconds. A compound that modulates ICRAC (e.g., inhibits) is a compound that is useful in the invention for modulating CRAC ion channel activity.
ICRAC currents are measured using 50 msec voltage ramps between −100 mV to +100 mV. The voltage ramps are stimulated every 2 seconds for the first 70 sweeps, then every 5 seconds for the remainder of the experiment. The membrane potential is held at 0 mV between the test ramps. In a typical experiment, the peak inward currents will develop within 50-100 seconds. Once the ICRAC current is stabilized, the cells are perfused with a test compound in the extracellular solution for at least an additional 500 seconds.
Off-line analysis with the Heka PatchMaster software is used to separate the ICRAC membrane current from the cells basal background currents. In a typical recording, InsP3 stimulated ICRAC currents begin to develop in 6 to 12 seconds after whole cell is established. Therefore, the first 1-4 voltage ramps represent the basal membrane currents in the absence of ICRAC and the average value is subtracted from all subsequent traces. The current value at −80 mV for each ramp trace is then measured and plotted against time. The resulting current versus time data is exported into a Microsoft Excel spreadsheet. The % ICRAC inhibition in each cell is calculated by comparing the amount of current just prior to the compound perfusion to the amount of current after the cells has been perfused with the compound for 440-500 seconds. The IC50 value and Hill coefficient for each compound is estimated by fitting all the individual data points to a single-site Hill equation.
TREx™-CHO cells were transfected with human Stim1 (recombinant DNA in pcDNA4/TO/myc-His™ A with a myc epitope tag in the N-terminal) and either CracM1, CracM2 or CracM3 (recombinant DNA in pcDNA 3.1 with a HA epitope tag in the N-terminal). Stably expressing cells were selected by growing the transfected cells in antibiotics for two to three weeks. Individual cell clones were isolated via serial dilution. […]

T1 sequence (Q96D31 whole entry): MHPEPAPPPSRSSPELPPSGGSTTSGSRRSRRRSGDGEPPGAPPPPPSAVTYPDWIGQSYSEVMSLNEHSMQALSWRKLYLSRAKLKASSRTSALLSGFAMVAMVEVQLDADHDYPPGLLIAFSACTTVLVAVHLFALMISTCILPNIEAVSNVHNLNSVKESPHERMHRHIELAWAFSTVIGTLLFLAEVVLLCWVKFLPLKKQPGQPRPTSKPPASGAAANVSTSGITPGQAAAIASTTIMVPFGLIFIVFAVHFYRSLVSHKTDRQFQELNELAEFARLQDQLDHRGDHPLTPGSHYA

Row | SMILES | IC50 ([1]; activity class) | also measured
1 | COC(=O)c1cc(NC(=O)c2c(F)cccc2F)ccc1-c1cc(-c2cccnc2)sc1CO [M] | > 100 nM | 
2 | C=C(C)c1sc(-c2cccnc2)cc1-c1cnc(NC(=O)c2c(F)cccc2F)cn1 [Compound 13, 2,6-difluoro-N-(5-(2-(prop-1-en-2-yl)-5-(pyridin-3-yl)thiophen-3-yl)pyrazin-2-yl)benzamide] | 50 to 100 nM | 
3 | Cc1sc(-c2cnccn2)nc1-c1ccc(NC(=O)c2cccc(F)c2C)nc1 [Compound A11] |  | IC50 ([1]; numeric values, unit inferred): 43 nM
4 | CC(C)(O)c1sc(-c2cccnc2)cc1-c1ccc(NC(=O)c2c(F)cccc2F)nc1 [Compound 9, 2,6-difluoro-N-(5-(2-(2-hydroxypropan-2-yl)-5-(pyridin-3-yl)thiophen-3-yl)pyridin-2-yl)benzamide] | > 100 nM | 
5 | CCc1sc(-c2ccc(C)nc2)nc1-c1ccc(NC(=O)c2cccc(F)c2C)nc1 [Compound A7] |  | IC50 ([1]; numeric values, unit inferred): 21 nM
6 | Cc1sc(-c2ccc(N)nc2)nc1-c1cnc(NC(=O)c2c(F)cccc2F)cn1 [Compound A4] |  | IC50 ([1]; numeric values, unit inferred): 17 nM
7 | CC(C)c1sc(-c2cnn(C)c2)nc1-c1ccc(NC(=O)c2ccc(F)cc2F)nc1 [Compound 5, 2,4-Difluoro-N-(5-(5-isopropyl-2-(1-methyl-1H-pyrazol-4-yl)thiazol-4-yl)pyridin-2-yl)benzamide] | > 100 nM | 
8 | CCc1sc(-c2ccc(N)nc2)nc1-c1ccc(NC(=O)c2cccc(F)c2C)nc1 [Compound A3] |  | IC50 ([1]; numeric values, unit inferred): 16 nM
9 | Cc1cc(-c2nc(-c3ccc(NC(=O)c4cccc(F)c4C)nc3)c(C)s2)no1 [Compound A6] |  | IC50 ([1]; numeric values, unit inferred): 21 nM
10 | Cc1cccc(F)c1C(=O)Nc1ccc(-c2nc(-c3cnn(C)c3)sc2C)cn1 [Compound A5] |  | IC50 ([1]; numeric values, unit inferred): 77 nM
11 | Cc1sc(-c2cncn2CCN(C)C)cc1-c1ccc(NC(=O)c2c(F)cccc2F)cc1 [K] | > 100 nM | 
12 | Cc1sc(-c2ncc(-c3cccnc3)s2)cc1-c1ccc(NC(=O)c2c(F)cccc2F)nc1 [I] | > 100 nM | 
13 | CC(C)c1sc(-c2cccnc2)nc1-c1ccc(NC(=O)c2ccc(F)cc2F)nc1 [D] | 50 to 100 nM | 
14 | CC(C)(O)c1sc(-c2cccnc2)cc1-c1cnc(NC(=O)c2c(F)cccc2F)cn1 [Compound 12, 2,6-difluoro-N-(5-(2-(2-hydroxypropan-2-yl)-5-(pyridin-3-yl)thiophen-3-yl)pyrazin-2-yl)benzamide] | > 100 nM | 
15 | CCc1sc(-c2cccnc2)nc1-c1ccc(NC(=O)c2cccc(F)c2C)nc1 [Compound A2] |  | IC50 ([1]; numeric values, unit inferred): 10 nM
16 | CC(=O)c1cc(-c2ccc(NC(=O)c3c(F)cccc3F)cc2)c(C)s1 [L] | > 100 nM | 
17 | Cc1cc(C(=O)c2ccccc2)sc1-c1ccc(NC(=O)c2c(F)cccc2F)cc1 [A] | < 50 nM | inhibition at 0.5 µM [2]: 70 to 100%
18 | CCc1sc(-c2cnn(C)c2)nc1-c1cnc(NC(=O)c2c(F)cccc2F)cn1 [Compound A10] |  | IC50 ([1]; numeric values, unit inferred): 40 nM
19 | Cc1sc(C(=O)c2cccnc2)cc1-c1ccc(NC(=O)c2c(F)cccc2F)cc1 [O] | < 50 nM | ICRAC current inhibition CRACM1/STIM1-CHOK1 % Inhibition at 500 nM [2]: High
20 | CC(C)c1sc(-c2cccnc2)cc1-c1cnc(NC(=O)c2c(F)cccc2F)cn1 [Compound T] | < 50 nM | 
21 | Cc1sc(-c2ncco2)cc1-c1ccc(NC(=O)c2c(F)cccc2F)cc1 [J] | < 50 nM | 
22 | Cc1sc(CCc2cccnc2)nc1-c1ccc(NC(=O)c2c(F)cccc2F)nc1 [E] | 50 to 100 nM | 
23 | O=C(Nc1ccc(-c2cc(-c3cccnc3)sc2-c2cccnc2)cc1)c1c(F)cccc1F [Compound 16, N-(4-(2,5-di(pyridin-3-yl)thiophen-3-yl)phenyl)-2,6-difluorobenzamide] | < 50 nM | 
24 | CCc1sc(-c2cnn(C)c2)nc1-c1ccc(C(=O)Nc2c(C)cccc2F)cc1 [Compound A12] |  | IC50 ([1]; numeric values, unit inferred): 44 nM
25 | CCc1sc(-c2cccnc2C)nc1-c1ccc(NC(=O)c2cccc(F)c2C)nc1 [Compound A9] |  | IC50 ([1]; numeric values, unit inferred): 28 nM
26 | Cc1cccc(F)c1C(=O)Nc1ccc(-c2nc(-c3ccc(N)nc3)sc2C)cn1 [Compound A8] |  | IC50 ([1]; numeric values, unit inferred): 26 nM

The next lines start with results.

Row | IC50 ([1]; activity class) | SMILES | also measured
27 | < 50 nM | Cc1sc(-c2cnco2)nc1-c1ccc(NC(=O)c2c(F)cccc2F)cc1 [G] | 
28 | < 50 nM | Cc1sc(-c2ccccn2)nc1-c1ccc(NC(=O)c2c(F)cccc2F)cc1 [Compound 2, 2,6-Difluoro-N-(4-(5-methyl-2-(pyridin-2-yl)thiazol-4-yl)phenyl)benzamide] | inhibition at 0.5 µM [2]: 70 to 100%
29 | < 50 nM | Cc1cc(C(=O)c2cccnc2)sc1-c1ccc(NC(=O)c2c(F)cccc2F)nc1 [B] | inhibition at 0.5 µM [2]: 50 to 70%
30 | < 50 nM | Cc1sc(-c2cccnc2)nc1-c1ccc(NC(=O)c2c(F)cccc2F)cc1 [F] | inhibition at 0.5 µM [2]: 50 to 70%
31 | < 50 nM | Cc1sc(-c2cnn(C)c2)nc1-c1ccc(NC(=O)c2c(F)cccc2F)cc1 [H] | inhibition at 0.5 µM [2]: 70 to 100%
32 | < 50 nM | Cc1sc(-c2cccnc2)cc1-c1cnc(NC(=O)c2c(F)cccc2F)cn1 [Compound 17, 2,6-difluoro-N-(5-(2-methyl-5-(pyridin-3-yl)thiophen-3-yl)pyrazin-2-yl)benzamide] | 
33 | < 50 nM | Cc1sc(C(=O)c2ccncc2)cc1-c1ccc(NC(=O)c2c(F)cccc2F)cc1 [P] | 
34 | < 50 nM | CC(C)(O)c1sc(-c2cccnc2)cc1-c1ccc(NC(=O)c2c(F)cccc2F)cc1 [N] | 
35 | < 50 nM | Cc1sc(CCc2cccnc2)cc1-c1ccc(NC(=O)c2c(F)cccc2F)cc1 [R] | 
36 | < 50 nM | Cc1cc(C(=O)c2cccnc2)sc1-c1ccc(NC(=O)c2c(F)cccc2F)cc1 [Compound 6, 2,6-difluoro-N-(4-(3-methyl-5-nicotinoylthiophen-2-yl)phenyl)benzamide] | inhibition at 0.5 µM [2]: 70 to 100%
37 | < 50 nM | Cc1sc(-c2ncco2)cc1-c1cnc(NC(=O)c2c(F)cccc2F)cn1 [S] | 
38 | < 50 nM | CC(C)c1sc(-c2cccnc2)cc1-c1ccc(NC(=O)c2c(F)cccc2F)nc1 [Compound 11, 2,6-difluoro-N-(5-(2-isopropyl-5-(pyridin-3-yl)thiophen-3-yl)pyridin-2-yl)-benzamide] | inhibition at 0.5 µM [2]: < 50%
39 | < 50 nM | Cc1sc(C#Cc2cccnc2)cc1-c1ccc(NC(=O)c2c(F)cccc2F)cc1 [Q] | 
40 | < 50 nM | Cc1sc(-c2ccccn2)nc1-c1ccc(NC(=O)c2c(F)cccc2F)nc1 [Compound 1, 2,6-Difluoro-N-(5-(5-methyl-2-(pyridin-2-yl)thiazol-4-yl)pyridin-2-yl)benzamide] | inhibition at 0.5 µM [2]: 50 to 70%
41 | < 50 nM | Cc1sc(-c2cnn(C)c2)nc1-c1ccc(NC(=O)c2c(F)cccc2F)nc1 [Compound 4, 2,6-Difluoro-N-(5-(5-methyl-2-(1-methyl-1H-pyrazol-4-yl)thiazol-4-yl)pyridin-2-yl)benzamide] | inhibition at 0.5 µM [2]: < 50%
42 | < 50 nM | Cc1sc(-c2cccnc2)nc1-c1ccc(NC(=O)c2c(F)cccc2F)nc1 [Compound 3, 2,6-Difluoro-N-(5-(5-methyl-2-(pyridin-3-yl)thiazol-4-yl)pyridin-2-yl)benzamide] | inhibition at 0.5 µM [2]: 70 to 100%
43 | < 50 nM | CC(C)c1sc(-c2cccnc2)nc1-c1ccc(NC(=O)c2c(F)cccc2F)nc1 [C] | inhibition at 0.5 µM [2]: < 50%
44 | < 50 nM | C=C(C)c1sc(-c2cccnc2)cc1-c1ccc(NC(=O)c2c(F)cccc2F)nc1 [Compound 10, 2,6-difluoro-N-(5-(2-(prop-1-en-2-yl)-5-(pyridin-3-yl)thiophen-3-yl)pyridin-2-yl)benzamide] | inhibition at 0.5 µM [2]: 50 to 70%
